Experiments:
[1] = system: JAK-STAT signalling in HeLa cells; assay: JAK-STAT signalling assay (OSM-triggered pSTAT1(2)-luciferase reporter in HeLa cells); type: cell-based; conditions: Homo sapiens; HeLa cells, OSM-triggered pSTAT1(2)-luciferase reporter; read-out: STAT signalling EC50
In short: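 HeLa cells transiently transfected with pSTAT1(2)-luciferase reporter plus LacZ internal control, incubated overnight at 37 °C, 10% CO2, then OSM-stimulated with compound. Luciferase read by Steadylite luminescence and normalised to β-galactosidase (ONPG); percent inhibition from controls, EC50 from dose-response.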

[2] = molecular target: Recombinant human JAK1 catalytic domain (Homo sapiens (Human), UniProt P23458); assay: JAK1 inhibition assay; type: biochemical; conditions: semi-quantitative score
In short: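 Radiometric assay read by scintillation counting after phosphoric-acid washes. Percent inhibition calculated from cpm relative to vehicle and 10 μM staurosporine control. IC50 derived from compound dose-dilution series.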

[3] = system: MMP13 in SW1353 cells; assay: OSM/IL-1β signaling assay (MMP13 levels in SW1353 cells); type: cell-based; conditions: Homo sapiens; SW1353 cells, OSM and IL-1β triggered, MMP13 levels 48 hours after triggering; read-out: MMP13 EC50;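 note: secreted MMP13 captured by antibody, activated with APMA and its activity read by fluorescence, inhibition scaled between vehicle-treated triggered wells (0%) and untriggered wells (100%)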
Method: The cells were seeded in 96 well plates at 15,000 cells/well in a volume of 120 μL DMEM (Invitrogen) containing 10% (v/v) FBS and 1% penicillin/streptomycin (InVitrogen) incubated at 37° C. […] MMP13 activity was measured using an antibody capture activity assay. […] Next the wells were washed twice with PBS+0.05% Tween followed by MMP13 activation by addition of 35 μL of a 1.5 mM 4-Aminophenylmercuric acetate (APMA) (Sigma, A9563) solution and incubation at 37° C. for 1 hour. […] Percentage inhibition=((fluorescence determined in the presence of vehicle−fluorescence determined for sample with test compound present) divided by (fluorescence determined in the presence of vehicle−fluorescence determined for sample without trigger))*100%.

[4] = Microsomal stability, rat liver microsomes; type: in vitro ADME; conditions: percentage of compound remaining after 60 minutes, 3 μM compound
Method: (§1) 40 μL of deionised water was added to a well of a polypropylene Matrix 2D barcode labelled storage tube (Thermo Scientific) and pre-incubated at 37° C.
(§2) A co-factor containing MgCl2, glucose-6-phosphate and NADP+ was prepared in deionised water and placed on ice before use.
(§3) A final working solution containing liver microsomes (Xenotech of a species of interest (human, mouse, rat, dog), previously described G6PDH and co-factors was prepared and this mix was incubated for no longer than 20 minutes at room temperature.
(§4) 30 μL of the pre-heated compound dilution was added to 40 μL of pre-heated water in the Matrix tubes and 30 μL of the microsomal mix was added.
(§5) To measure percentage remaining of compound at time zero MeOH or ACN was added (1:1) to the well before adding the microsomal mix.
(§6) The samples which were not stopped are incubated at 37° C., 300 rpm and after 1 hour of incubation the reaction was stopped with MeOH or ACN (1:1).
(§7) After stopping the reaction the samples were mixed and placed on ice for 30 min to precipitate the proteins.
(§8) The samples were analyzed on LCMS with a flow rate of 1 mL/min. Solvent A was 15 mM ammonia and solvent B was methanol or acetonitrile, depending on the stop solution used. […] The percentage remaining after 1 hour incubation was calculated from time 0 and was calculated as the percentage remaining.
(§9) The data on microsomal stability are expressed as a percentage of the total amount of compound remaining after 60 minutes.

[5] = Microsomal stability, human liver microsomes; type: in vitro ADME; conditions: percentage of compound remaining after 60 minutes, 3 μM compound
Method: as §1, §2, §3, §4, §5, §6, §7, §8, §9

[6] = molecular target: Recombinant human JAK2 catalytic domain (Homo sapiens (Human), UniProt O60674); assay: JAK2 inhibition assay; type: biochemical; conditions: semi-quantitative score
In short: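 Radiometric kinase reactions ran for 90 min at 30 °C and were stopped with phosphoric acid, then washed and counted by scintillation. Percent inhibition was set relative to vehicle and to 10 μM staurosporine background. IC50 was derived from dose-dilution series.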

Chain of Recombinant human JAK1 catalytic domain (P23458 850-1154): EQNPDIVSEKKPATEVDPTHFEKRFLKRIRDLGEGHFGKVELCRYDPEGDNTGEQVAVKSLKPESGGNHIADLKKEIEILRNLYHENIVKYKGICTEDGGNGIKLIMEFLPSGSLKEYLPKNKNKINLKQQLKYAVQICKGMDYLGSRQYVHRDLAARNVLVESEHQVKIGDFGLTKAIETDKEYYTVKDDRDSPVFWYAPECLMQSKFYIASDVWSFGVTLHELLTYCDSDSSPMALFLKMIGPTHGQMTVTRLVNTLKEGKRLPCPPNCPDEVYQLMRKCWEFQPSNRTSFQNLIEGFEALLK
Chain of Recombinant human JAK2 catalytic domain (O60674 808-1132): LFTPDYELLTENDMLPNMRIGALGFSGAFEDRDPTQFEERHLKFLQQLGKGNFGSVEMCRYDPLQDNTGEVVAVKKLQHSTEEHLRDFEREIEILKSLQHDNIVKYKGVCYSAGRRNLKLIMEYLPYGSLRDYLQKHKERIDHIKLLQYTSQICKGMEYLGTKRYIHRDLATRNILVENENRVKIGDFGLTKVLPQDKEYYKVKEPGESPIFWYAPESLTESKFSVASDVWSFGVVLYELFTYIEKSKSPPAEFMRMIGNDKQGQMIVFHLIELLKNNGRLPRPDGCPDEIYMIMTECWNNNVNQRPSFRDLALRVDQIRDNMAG

SMILES | EC50 [1] | IC50 [2] | EC50 [3] | Microsomal Stability Rat (%) [4] | Microsomal Stability Human (%) [5] | IC50 [6]
CN(C(=O)COc1ccc(-c2cccc3nc(NC(=O)C4CC4)nn23)cc1)c1ccccc1 [Compound 118, N-(5-(4-(2-(methyl(phenyl)amino)-2-oxoethoxy)phenyl)-[1,2,4]triazolo[1,5-a]pyridin-2-yl)cyclopropanecarboxamide] | > 1 µM | < 0.1 µM | > 1 µM | * (* 0-25) | * (* 0-25) | –
O=C(N[C@@H]1CCN(Cc2ccccc2)C1)c1ccc(-c2cccc3nc(NC(=O)C4CC4)nn23)cc1 [Compound 120, (R)-N-(1-benzylpyrrolidin-3-yl)-4-(2-(cyclopropanecarboxamido)-[1,2,4]triazolo[1,5-a]pyridin-5-yl)benzamide] | > 1 µM | < 0.1 µM | > 1 µM | * (* 0-25) | * (* 0-25) | –
O=C(Nc1nc2cccc(-c3ccc(NS(=O)(=O)CCOc4ccccc4)cc3)n2n1)C1CC1 [Compound 122, N-(5-(4-(2-phenoxyethylsulfonamido)phenyl)-[1,2,4]triazolo[1,5-a]pyridin-2-yl)cyclopropanecarboxamide] | > 1 µM | < 0.1 µM | > 1 µM | * (* 0-25) | * (* 0-25) | –
O=C(Nc1nc2cccc(-c3ccc(NCCc4ccccc4)nc3)n2n1)C1CC1 [Compound 123, N-(5-(6-(phenethylamino)pyridin-3-yl)-[1,2,4]triazolo[1,5-a]pyridin-2-yl)cyclopropanecarboxamide] | > 1 µM | < 0.1 µM | > 1 µM | * (* 0-25) | * (* 0-25) | –
O=C(NCCc1cccnc1)c1ccc(-c2cccc3nc(NC(=O)C4CC4)nn23)cc1 [Compound 124, 4-(2-(cyclopropanecarboxamido)-[1,2,4]triazolo[1,5-a]pyridin-5-yl)-N-(2-(pyridin-3-yl)ethyl)benzamide] | > 1 µM | < 0.1 µM | > 1 µM | * (* 0-25) | * (* 0-25) | –
CC1CCCCN1C(=O)c1ccc(-c2cccc3nc(NC(=O)C4CC4)nn23)cc1 (stereo not drawn) [Compound 144, N-(5-(4-(2-methylpiperidine-1-carbonyl)phenyl)-[1,2,4]triazolo[1,5-a]pyridin-2-yl)cyclopropanecarboxamide] | > 1 µM | < 0.1 µM | > 1 µM | * (* 0-25) | ** (** 26-50) | –
CN(C)CCN(Cc1ccccc1)C(=O)c1ccc(-c2cccc3nc(NC(=O)C4CC4)nn23)cc1 [Compound 150, N-benzyl-4-(2-(cyclopropanecarboxamido)-[1,2,4]triazolo[1,5-a]pyridin-5-yl)-N-(2-(dimethylamino)ethyl)benzamide] | > 1 µM | < 0.1 µM | > 1 µM | * (* 0-25) | *** (*** 51-75) | –
O=C(Nc1nc2cccc(-c3ccc(OCc4ccc(-c5cn[nH]c5)nc4)cc3)n2n1)C1CC1 [Compound 166] | > 1 µM | < 0.1 µM | > 1 µM | * (* 0-25) | *** (*** 51-75) | –
O=C(Nc1nc2cccc(-c3ccc(C(=O)N4CCCC(c5ccccc5)C4)cc3)n2n1)C1CC1 (stereo not drawn) [Compound 169, N-(5-(4-(3-phenylpiperidine-1-carbonyl)phenyl)-[1,2,4]triazolo[1,5-a]pyridin-2-yl)cyclopropanecarboxamide] | > 1 µM | < 0.1 µM | > 1 µM | * (* 0-25) | * (* 0-25) | –
N#CC1(C(=O)Nc2ccc(-c3cccc4nc(NC(=O)C5CC5)nn34)cc2)CC1 [Compound 177, 1-cyano-N-(4-(2-(cyclopropanecarboxamido)-[1,2,4]triazolo[1,5-a]pyridin-5-yl)phenyl)cyclopropanecarbox-amide] | > 1 µM | < 0.1 µM | > 1 µM | **** (**** 76-100) | **** (**** 76-100) | –
Cn1cc(-c2ccc(COc3ccc(-c4cccc5nc(NC(=O)C6CC6)nn45)cc3)cn2)cn1 [Compound 178] | > 1 µM | < 0.1 µM | > 1 µM | ** (** 26-50) | * (* 0-25) | –
O=C(Nc1nc2cccc(-c3ccc(NCc4cccnc4)cc3)n2n1)C1CC1 [Compound 182, N-(5-(4-(pyridin-3-ylmethylamino)phenyl)-[1,2,4]triazolo[1,5-a]pyridin-2-yl)cyclopropanecarboxamide] | > 1 µM | < 0.1 µM | > 1 µM | * (* 0-25) | * (* 0-25) | –
COC(=O)c1ccc(COc2ccc(-c3cccc4nc(NC(=O)C5CC5)nn34)cc2)nc1 [Compound 190] | > 1 µM | < 0.1 µM | > 1 µM | * (* 0-25) | * (* 0-25) | –
O=C(Nc1cccnc1)c1ccc(-c2cccc3nc(NC(=O)C4CC4)nn23)cc1 [Compound 206, 4-[2-(Cyclopropanecarbonyl-amino)-[1,2,4]triazolo[1,5-a]pyridin-5-yl]-N-pyridin-3-yl-benzamide] | > 1 µM | < 0.1 µM | – | *** (*** 51-75) | **** (**** 76-100) | 0.101 to 0.5 µM

The next lines start with the values.

EC50 [1] | IC50 [2] | EC50 [3] | Microsomal Stability Rat (%) [4] | Microsomal Stability Human (%) [5] | IC50 [6] | SMILES
> 1 µM | < 0.1 µM | > 1 µM | * (* 0-25) | * (* 0-25) | – | O=C(Nc1ccncc1)c1ccc(-c2cccc3nc(NC(=O)C4CC4)nn23)cc1 [Compound 25, 4-(2-(cyclopropanecarboxamido)-[1,2,4]triazolo[1,5-a]pyridin-5-yl)-N-(pyridin-4-yl)benzamide]
> 1 µM | < 0.1 µM | > 1 µM | *** (*** 51-75) | **** (**** 76-100) | – | O=C(Nc1nc2cccc(-c3ccc(NS(=O)(=O)c4cccnc4)cc3)n2n1)C1CC1 [Compound 64, N-(5-(4-(pyridine-3-sulfonamido)phenyl)-[1,2,4]triazolo[1,5-a]pyridin-2-yl)cyclopropanecarboxamide]
> 1 µM | < 0.1 µM | > 1 µM | * (* 0-25) | *** (*** 51-75) | – | O=C(Nc1nc2cccc(-c3ccc(C(=O)N4CCCCC4)cc3F)n2n1)C1CC1 [Compound 89, N-(5-(2-fluoro-4-(piperidine-1-carbonyl)phenyl)-[1,2,4]triazolo[1,5-a]pyridin-2-yl)cyclopropanecarboxamide]
> 1 µM | < 0.1 µM | > 1 µM | *** (*** 51-75) | ** (** 26-50) | – | O=C(Nc1nc2cccc(-c3ccc(C(=O)N4CCN(c5cccc(Cl)c5)CC4)cc3)n2n1)C1CC1 [Compound 113]
0.501 to 1 µM | < 0.1 µM | > 1 µM | ** (** 26-50) | *** (*** 51-75) | – | CC1CC(C)CN(C(=O)c2ccc(-c3cccc4nc(NC(=O)C5CC5)nn34)cc2)C1 (stereo not drawn) [Compound 134]
0.501 to 1 µM | < 0.1 µM | > 1 µM | **** (**** 76-100) | *** (*** 51-75) | – | O=C(Nc1nc2cccc(-c3ccc(C(=O)N4CCC(F)CC4)cc3)n2n1)C1CC1 [Compound 137, N-(5-(4-(4-fluoropiperidine-1-carbonyl)phenyl)-[1,2,4]triazolo[1,5-a]pyridin-2-yl)cyclopropanecarboxamide]
0.101 to 0.5 µM | < 0.1 µM | > 1 µM | *** (*** 51-75) | ** (** 26-50) | – | O=C(Nc1nc2cccc(-c3ccc(C(=O)N4CCC(c5cc6ccccc6[nH]5)CC4)cc3)n2n1)C1CC1 [Compound 138]
